# Measurements taken from publication PMC6150365, “Simultaneous Determination of Seven Components in Rat Plasma by the UPLC-MS/MS Method and Application of Pharmacokinetic Studies to SimiaoYong’an Decoction” (Molecules : A Journal of Synthetic Chemistry and Natural …, 2017).
# Test: Pharmacokinetic study in rats after oral administration of SYD extract and its single and combined TCM extracts (UPLC-MS/MS of plasma)
# Conditions: male, Sprague-Dawley, rat, plasma, po, n = 6; for AUC(0-t) / AUC(0-inf) / MRT last / MRT inf / Tmax / Cmax: rat plasma; for MRT last: MRT(0–t); for MRT inf: MRT(0–∞)
# [1] = 2.49 g/kg, oral SN extract 2.49 g/kg
# [2] = 3.38 g/kg extract (6.67 g/kg as herbs), oral SN + GU extract
# [3] = 3.38 g·kg^−1 (extract), oral SN + GU extract
# [4] = 3.98 g/kg extract (8.33 g/kg as herbs), oral SN + AS extract
# [5] = 4.5 g·kg^−1 (extract), oral LJ + SN extract
# [6] = 4.5 g·kg^−1 extract, oral LJ + SN extract
# [7] = 4.73 g/kg, oral LJ + SN + GU extract 4.73 g/kg
# [8] = 5.43 g/kg, oral LJ + SN + AS extract 5.43 g/kg
# [9] = 8.25 g/kg, oral SYD extract 8.25 g/kg
compound,measurement,setting,value
"COc1ccc(CCO[C@@H]2O[C@H](CO[C@@H]3OC[C@H](O)[C@H](O)[C@H]3O)[C@@H](OC(=O)/C=C/c3ccc(O)c(OC)c3)[C@H](O[C@@H]3O[C@@H](C)[C@H](O)[C@@H](O)[C@H]3O)[C@H]2O)cc1O [Angoroside C, angoroside C]",AUC(0-t),[1],90 ± 30 ng·h/mL
same,AUC(0-inf),[1],110 ± 20 ng·h/mL
same,MRT last,[1],3.03 ± 0.37 h
same,MRT inf,[1],18.1 ± 3.41 h
same,Tmax,"2.49 g/kg, Tmax, oral SN extract 2.49 g/kg",1.25 ± 0.59 h
same,half-life,"2.49 g/kg, t1/2, rat plasma, oral SN extract 2.49 g/kg",641 ± 368 min
same,MRT last,[2],2.86 ± 1.21 h
same,MRT inf,[2],4.99 ± 3.19 h
same,Tmax,"3.38 g/kg extract (6.67 g/kg as herbs), Tmax, oral SN + GU extract",1.11 ± 0.52 h
same,half-life,"3.38 g/kg extract (6.67 g/kg as herbs), t1/2, rat plasma, oral SN + GU extract",595 ± 277 min
same,AUC(0-t),[3],410 ± 60 ng·h/mL
same,AUC(0-inf),[3],420 ± 80 ng·h/mL
same,Cmax,"3.38 g·kg^−1 extract, oral SN + GU extract",330 ± 50 ng/mL
same,AUC(0-t),[4],450 ± 30 ng·h/mL
same,AUC(0-inf),[4],460 ± 30 ng·h/mL
same,MRT last,[4],2.85 ± 1.25 h
same,MRT inf,[4],5.01 ± 3.31 h
same,Tmax,"3.98 g·kg^−1, Tmax, oral SN + AS extract",1.03 ± 0.49 h
same,half-life,"3.98 g·kg^−1, t1/2, rat plasma, oral SN + AS extract",602 ± 283 min
same,Cmax,"3.98 g·kg^−1 extract, oral SN + AS extract",400 ± 20 ng/mL
same,MRT last,[5],2.88 ± 1.23 h
same,MRT inf,[5],5.22 ± 3.5 h
same,Tmax,"4.5 g·kg^−1 (extract), Tmax, oral LJ + SN extract",1.07 ± 0.54 h
same,half-life,"4.5 g·kg^−1 (extract), t1/2, rat plasma, oral LJ + SN extract",621 ± 304 min
same,AUC(0-t),[6],390 ± 460 ng·h/mL
same,AUC(0-inf),[6],400 ± 460 ng·h/mL
same,Cmax,[6],270 ± 330 ng/mL
same,AUC(0-t),[7],220 ± 90 ng·h/mL
same,AUC(0-inf),[7],230 ± 190 ng·h/mL
same,Cmax,[7],150 ± 150 ng/mL
same,MRT last,[7],2.95 ± 0.82 h
same,MRT inf,[7],7.88 ± 6.88 h
same,Tmax,"4.73 g/kg, Tmax, oral LJ + SN + GU extract 4.73 g/kg",1.29 ± 0.46 h
same,half-life,"4.73 g/kg, t1/2, rat plasma, oral LJ + SN + GU extract 4.73 g/kg",704 ± 391 min
same,AUC(0-t),[8],180 ± 130 ng·h/mL
same,AUC(0-inf),[8],200 ± 130 ng·h/mL
same,Cmax,[8],140 ± 130 ng/mL
same,MRT last,[8],3.05 ± 0.7 h
same,MRT inf,[8],8.16 ± 6.76 h
same,Tmax,"5.43 g/kg, Tmax, oral LJ + SN + AS extract 5.43 g/kg",1.38 ± 0.44 h
same,half-life,"5.43 g/kg, t1/2, rat plasma, oral LJ + SN + AS extract 5.43 g/kg",709 ± 395 min
same,AUC(0-t),[9],300 ± 290 ng·h/mL
same,AUC(0-inf),[9],310 ± 290 ng·h/mL
same,Cmax,[9],180 ± 200 ng/mL
same,MRT last,[9],3.01 ± 0.69 h
same,MRT inf,[9],7.01 ± 5.95 h
same,Tmax,"8.25 g/kg, Tmax, oral SYD extract 8.25 g/kg",1.38 ± 0.44 h
same,half-life,"8.25 g/kg, t1/2, rat plasma, oral SYD extract 8.25 g/kg",683 ± 380 min
same,Tmax,"[…], Tmax, oral SN + AS + GU extract […]",1.38 ± 0.44 h
same,half-life,"[…], t1/2, rat plasma, oral SN + AS + GU extract […]",695 ± 385 min
